Values quoted from earlier work in patent US20230000786A1, “TREATMENT OF SKIN DISORDERS WITH TOPICAL COMPOSITIONS COMPRISING TAPINAROF AND A PDE4 INHIBITOR” (Sol-Gel Technologies Ltd., priority 2019, published 2023).
Where two headings read alike, the source gives them in different places.

How the values were obtained:
[1] = system: proinflammatory mediators, including interleukin-6 and interleukin-17A; details: mouse models
[2] = 1% tapinarof arm compared with 0.5% arm or vehicle
[3] = across all groups treated
[4] = psoriasis treatment, single drug; placebo 20.2%
[5] = system: proinflammatory mediators, including interleukin-6 and interleukin-17A; details: in vitro human skin studies
[6] = interleukin-6 and interleukin-17A

| Compound | skin barrier function [1] | inhibition of specific proinflammatory mediators [1, 6] | efficacy [2] | onset of action [2] | folliculitis side-effect [3] [%] | contact dermatitis side-effect ([3]; listed among most common side-effects (>5%)) [%] | adverse effects [4] [%] | skin barrier function [5] | inhibition of specific proinflammatory mediators [5, 6] |
| --- | --- | --- | --- | --- | --- | --- | --- | --- | --- |
| CC(C)c1c(O)cc(/C=C/c2ccccc2)cc1O [Tapinarof, 3,5-dihydroxy-4-isopropyl-trans-stilbene] | enhance skin barrier function | inhibit specific proinflammatory mediators | higher efficacy | quicker onset of action | 9 | > 5 | 44.5 | enhance skin barrier function | inhibit specific proinflammatory mediators |
| C=C1/C(=C\C=C2/CCC[C@]3(C)[C@@H]([C@H](C)/C=C/[C@@H](O)C4CC4)CC[C@@H]23)C[C@@H](O)C[C@@H]1O [calcipotriene] |  |  |  |  |  |  | 19.5 |  |  |
